# Assay results reported in BindingDB's records for doi:10.1021/jm0011169 (Stockholm University, 2001).
# Molecular target: T1, Dimer of Gag-Pol polyprotein [489-587] (Human immunodeficiency virus 1, UniProt P12497)
# T1 construct: 489-587
# Test: Protease Inhibition Assay
# Settings: pH 5; 30 °C
# Method: A fluorimetric assay was used to determine the effects of the inhibitors on HIV-1 protease. This assay used an internally quenched fluorescent peptide substrate. The measurements were performed in 96-well plates with a Fluoroscan plate reader. Excitation and emission wavelengths were 355 nm and 500 nm, respectively.
row,Compound,Ki [nM]
1,"O=C(N[C@H]1c2ccccc2C[C@H]1O)[C@H](Sc1ccccc1F)[C@H](O)[C@@H](O)[C@@H](Sc1ccccc1F)C(=O)N[C@H]1c2ccccc2C[C@H]1O [(2R,3R,4R,5R)-2,5-bis[(2-fluorophenyl)sulfanyl]-3,4-dihydroxy-N,N'-bis[(1S,2R)-2-hydroxy-2,3-dihydro-1H-inden-1-yl]hexanediamide]",2.3
2,"C=CCS[C@@H](C(=O)N[C@H]1c2ccccc2C[C@H]1O)[C@H](O)[C@@H](O)[C@@H](SCC=C)C(=O)N[C@H]1c2ccccc2C[C@H]1O [(2R,3R,4R,5R)-3,4-dihydroxy-N,N'-bis[(1S,2R)-2-hydroxy-2,3-dihydro-1H-inden-1-yl]-2,5-bis(prop-2-en-1-ylsulfanyl)hexanediamide]",16
3,"O=C(N[C@H]1c2ccccc2C[C@H]1O)[C@H](SCc1ccccc1F)[C@H](O)[C@@H](O)[C@@H](SCc1ccccc1F)C(=O)N[C@H]1c2ccccc2C[C@H]1O [N1,N6-Di[(2R)-hydroxy-(1S)-indanyl]-(2R,3R,4R,5R)-2,5-di(2-fluorobenzylsulfanyl)-3,4-dihydroxyhexanediamide]",4.3
4,"O=C(N[C@H]1c2ccccc2C[C@H]1O)[C@H](SCc1ccccc1)[C@H](O)[C@@H](O)[C@@H](SCc1ccccc1)C(=O)N[C@H]1c2ccccc2C[C@H]1O [N1,N6-Di[(2R)-hydroxy-(1S)-indanyl]-(2R,3R,4R,5R)-2,5-di(benzylsulfanyl)-3,4-dihydroxyhexanediamide]",2.8
5,"O=C(N[C@H]1c2ccccc2C[C@H]1O)[C@H](Sc1ccccn1)[C@H](O)[C@@H](O)[C@@H](Sc1ccccn1)C(=O)N[C@H]1c2ccccc2C[C@H]1O [N1,N6-Di[(2R)-hydroxy-(1S)-indanyl]-(2R,3R,4R,5R)-3,4-dihydroxy-2,5-di(2-pyridylsulfanyl)hexanediamide]",285
6,"O=C(N[C@H]1c2ccccc2C[C@H]1O)[C@H](Sc1ccccc1)[C@H](O)[C@@H](O)[C@@H](Sc1ccccc1)C(=O)N[C@H]1c2ccccc2C[C@H]1O [N1,N6-Di[(2R)-hydroxy-(1S)-indanyl]-(2R,3R,4R,5R)-3,4-dihydroxy-2,5-di(phenylsulfanyl)hexanediamide]",1.8
